# Test results from patent US20240252463A1, “METHODS OF TREATING FIBROTIC PATHOLOGIES” (Mayo Foundation for Medical Education and Research, priority 2018, published 2024).
# Tested on: CTGF, COL1A1, ACTA2, FN1
# Experiment: qPCR of profibrotic and matrix remodeling gene expression in IPF patient-derived fibroblasts
# Format: cell-based, human
# Conditions: 2 ng/mL TGFβ and 10 μM DHX, 24 hours
# Experimental: FIGS. 3A-3F DHX reverses fibroblast matrix deposition, contraction and stiffening. 3a. […] Genes which encode Connective tissue growth factor (CTGF), Collagen I (COL1A1), αSMA (ACTA2), and Fibronectin (FN1) are reduced by 24 hour treatment with DHX (10 μM), +/−SCH 39166 (3 μM). N=3 (****p<0.0001, ***p<0.001, *p<0.05 vs. 0.1% DMSO vehicle control) 3b. DHX reverses TGFβ-induced αSMA+ stress fiber formation. IMR-90 cells pre-stimulated with 2 ng/mL TGFβ for 48 hours and then treated with DHX (10 μM)+2 ng/mL TGFβ for an additional 24 hours prior to fixation. Cells which are positive for αSMA were quantified by a blinded investigator and noted in the bottom right corner, a minimum of 300 cells in each experiment were quantified. N=3. 3c. DHX reverses TGFβ-induced extracellular matrix accumulation. […] Cell derived matrix is measured using antibodies for Collagen I and Fibronectin. […] DHX attenuates IPF patient-derived fibroblast contractility measured by traction force microscopy. […] RMS tractions were determined in two independent experiments; box and whisker plots show min to max, quartile, and mean from one representative experiment (****p<0.0001, *p<0.05 vs. 0.1% DMSO vehicle control). […] The matrices were decellularized and passage 3 NHLFs were plated onto the matrices; after 24 hours RNA was collected and expression of profibrotic genes was analyzed. […]
structure (smiles),measurement,value
"Oc1cc2c(cc1O)[C@H]1c3ccccc3CN[C@@H]1CC2 (racemic) [Dihydrexidine, dihydrexidine]","expression of matrix crosslinking, protease inhibitor and matrix degradation genes",reversed the effects of TGFβ
